# Assay: Phase 1a trial of GLP-1/FDKP inhalation powder: insulin, glucose, gastric emptying
# Format: in vivo, human
smiles,measurement,setting,value
"CC[C@H](C)[C@H](NC(=O)[C@H](Cc1ccccc1)NC(=O)[C@H](CCC(=O)O)NC(=O)[C@H](CCCCN)NC(=O)[C@H](C)NC(=O)[C@H](C)NC(=O)[C@H](CCC(N)=O)NC(=O)CNC(=O)[C@H](CCC(=O)O)NC(=O)[C@H](CC(C)C)NC(=O)[C@H](Cc1ccc(O)cc1)NC(=O)[C@H](CO)NC(=O)[C@H](CO)NC(=O)[C@@H](NC(=O)[C@H](CC(=O)O)NC(=O)[C@H](CO)NC(=O)[C@@H](NC(=O)[C@H](Cc1ccccc1)NC(=O)[C@@H](NC(=O)CNC(=O)[C@H](CCC(=O)O)NC(=O)[C@H](C)NC(=O)[C@@H](N)Cc1c[nH]cn1)[C@@H](C)O)[C@@H](C)O)C(C)C)C(=O)N[C@@H](C)C(=O)N[C@@H](Cc1c[nH]c2ccccc12)C(=O)N[C@@H](CC(C)C)C(=O)N[C@H](C(=O)N[C@@H](CCCCN)C(=O)NCC(=O)N[C@@H](CCCNC(=N)N)C(N)=O)C(C)C [GLP-1, glucagon-like peptide 1]",mean fasting plasma glucose,"1.5 mg GLP-1 inhaled, 20 min after dosing, from 85 mg/dL",70 mg/dL
same,inhibition of gastric emptying,"pulmonary administration, dry powder, data not shown",lack inhibition of gastric emptying
